Source: patent publication US7932384B2, “Reverse-turn mimetics and method relating thereto” (Choongwae Pharma Corporation, priority 2001, dated 2011)

Columns and labels:
[1] = system: Ephrin B2 (EphB2) receptor; experiment: EphB2 receptor expression (immunofluorescence and RT-PCR) in PC-12 PS-1/L286V cells; type: cell-based, Rat; settings: PS-1/L286V mutant PC-12 cells, 10 μM
Experimental: Immunofluorescence. Cells were plated at a density of 10,000 cells/cm^2 on sterile coated 22×22 mm coverslips in a 6-well culture plate. Differentiation was initiated, as previously described, for 10 days. The differentiated cells were then fixed in methanol for 15 minutes at −20° C. This is followed by a 15 minutes incubation with PBS+0.1% Triton X-100. The coverslips were incubated with antibodies raised against Ephrin B2 Receptor (Santa Cruz Biotechnology) and Gap-43 (Novus Biologicals) for 40 minutes at 37° C. After a series of washes with PBS-Triton X-100, secondary antibody conjugated to FITC (Jackson ImmunoResearch, Westgrove, Pa.) was applied. All slides images were acquired using a Nikon PCM2000 Laser Scanning Confocal Microscope mounted on a Nikon Eclipse E600 upright microscope (Nikon, Melville, N.Y.).
RT-PCR. To analyze the mRNA levels for Ephrin B2 (EphB2) receptor, total RNA was isolated using Trizol (Invitrogen-GIBCO-BRL, Baltimore, Md.) from differentiated cells. 2 μg RNA was reverse transcribed in a total volume of 20 μl with random hexamer (50 ng), and using the Superscript II reverse transcription system (Invitrogen-GIBCO-BRL), according to manufacturer's guidelines. PCR was carried out in a 50 μl volume containing 5 μl cDNA, 100 pmol primers, 100 μM dNTPs, 1×Taq buffer and 1.5 mM MgCl2. […]

[2] = system: MIC-1; experiment: Real time RT-PCR gene expression, MIC-1; type: cell-based; settings: 25 μM, 24 hours; <0.5 significant decrease, >1.5 significant increase
Experimental: Real time reverse transcription-PCR analysis was performed according to the protocol provided with the SYBR Green PCR Master Mix Kit (Perkin Elmer Biosystems, Shelton, ST). […] The primers used for the RT-PCR reactions were [NT] and [NT].

[3] = system: SW480 cells; experiment: Soft agar colony formation assay; type: cell-based; settings: SW480, 0.25-5 μM
Experimental: The soft agar colony formation assay was conducted with SW480 cells by some modification of the procedure previously described (Moody et al., “A vasoactive intestinal peptide antagonist inhibits non-small cell lung cancer growth,” Proc. Natl. Acad. Sci. USA. 90:4345-49 (1993)).
Each well (35 mm) of a 6-well plate (Nalge Nunc International, Roskide, Denmark) was coated with 1 ml of 0.8% bottom agar in DMEM medium containing 10% fetal bovine serum. After it was solidified, 1 ml of DMEM medium containing 0.4% top agar, 10% fetal bovine serum, compound doubly concentrated, and 5,000 single viable cells was added to each well. The cultures were incubated at 37° C. in humidified 5% CO2 incubator. Colonies in soft agar were monitored daily and photographed after incubation for 8 days. Colonies>60 μm in diameter were counted.

- Ratio (Treated/DMSO Control) MIC-1 [2]: 7.0
Structure (SMILES): O=C1[C@H](Cc2ccc(O)cc2)N2C(=O)CCN(C(=O)NCc3ccccc3)[C@H]2CN1Cc1cccc2ccccc12 [Compound D]
- EphB2 message (RT-PCR) [1]: increased EphB2 message
- number of colonies formed in soft agar [3]: dose dependent decrease in the number of colonies formed
